{"source": "patent US20240309014A1", "about": "“MACROCYCLIC COMPOUNDS AND USES THEREOF” (President and Fellows of Harvard College, priority 2017, published 2024)", "key": {"[1]": {"tested_on": "KPL-4 subcutaneous xenograft", "assay": "KPL-4 subcutaneous xenograft model in combination with trastuzumab", "format": "in vivo, nude mice", "procedure": "A human HER-2 positive breast cancer cell line KPL-4, which had been cultured in an RPMI-1640 medium containing 10% FBS, and penicillin and streptomycin, was adjusted to a concentration of 1×10^8 cells/mL with Hank's Balanced Salt Solution to prepare a cell suspension. The cell suspension was inoculated in a volume of 100 μL into a subcutaneous part of a right flank of nude mice, 7 weeks of ages (CAnN.Cg-Foxnlnu/CrlCrlj, female, Charles River Laboratories Japan, Inc.). Sixteen days after the cell inoculation, the shortest diameter and the longest diameter of a tumor in each mouse were measured by using an electronic digital caliper (Digimatic™ caliper, Mitutoyo Corporation), so as to calculate the volume of the tumor in accordance with the following calculation formulae: […]\nOn the basis of the volumes of tumors obtained on the first day of administration, the mice were grouped such that averages of the tumor volumes were substantially equal among the groups. The experiment was conducted on groups each consisting of 6 mice. Each test compound was dissolved in DMSO and a solution was stored at the freezer before use. Immediately before the administration, the stock solution was diluted in saline."}, "[2]": {"tested_on": "OE21, OE33, TE-8, MES-SA, MES-SA/Dx5-RX1 cell lines", "assay": "In vitro antiproliferative activity, esophageal and uterine cancer cell panel (FIG. 11)", "format": "cell-based, human", "details": "72 hours, CellTiter-Glo; values only in FIG. 11", "procedure": "The in vitro antiproliferative assays for Compound (1) were conducted using a small panel of cancer cell lines including human squamous cell carcinoma of the esophagus (OE21, TE-8), human […] of the esophagus (OE33), and human uterine sarcoma (MES-SA, MES-SA-Dx5-R^X1). All cell lines were cultured in RPMI-1640 medium containing 10% FBS, and penicillin-streptomycin (culture medium), in a 5% CO2 incubator (37° C.). To each well of a 96 well plate (Becton, Dickinson and Company, 353219), 75 μL of cell suspension adjusted to a concentration of 4×10^4 cells/mL with the culture medium was added, and the cells were incubated overnight in a 5% CO2 incubator (37° C.). On the next day, 25 μL of Compound (1) in three-fold dilution series suspended in the culture medium was added to each well, and the resultant was incubated for 72 hours in a 5% CO2 incubator (37° C.). Then, cell viability was determined by CellTiter-Glo® Luminescent Cell Viability Assay (Promega) with 2013 EnVision™ Multilabel Reader (Perkin-Elmer, Wellesley, MA). Value of the wells containing cells without adding the test compounds was defined as 100% and the value of the wells containing no cells was defined as 0%. […] The P-gp susceptibility was calculated as the ratio of the IC50 value in MES-SA-Dx5-R^X1 cells, which overexpress P-gp, to the IC50 value in MES-SA cells."}, "[3]": {"tested_on": "OSC-19 subcutaneous xenograft", "assay": "Antitumor activity against OSC-19 subcutaneous xenograft as monotherapy", "format": "in vivo, nude mice", "details": "Q7Dx2", "procedure": "A human squamous cell carcinoma of the head and neck (SCCHN) cell line OSC-19, which had been cultured in an DMEM/Ham's F-12 (1:1) medium containing 10% FBS, and penicillin and streptomycin, was adjusted to a concentration of 1×10^8 cells/ml with PBS to prepare a cell suspension, and the suspension was mixed with Matrigel™ (BD Bioscience, #366237) in a ratio of 1:1 to prepare a cell suspension in a concentration of 5×10^7 cell/mL. The cell suspension was inoculated in a volume of 100 μL into a subcutaneous part of a right flank of nude mice, 5 weeks of ages (CAnN.Cg-Foxnlnu/CrlCrlj, female, Charles River Laboratories Japan, Inc.). Six days after cell inoculation, the shortest diameter and the longest diameter of a tumor in each mouse were measured by using an electronic digital caliper (Digimatic™ caliper, Mitutoyo Corporation), so as to calculate the volume of the tumor in accordance with the following calculation formulae: […]\nOn the basis of the volumes of tumors obtained on the first day of administration, the mice were grouped such that averages of the tumor volumes were substantially equal among the groups. The experiment was conducted on groups each consisting of 6 mice. Test compound was dissolved in saline and intravenously administered at doses from 0.06 mg/kg to 0.18 mg/kg once a week for 2 weeks (Q7Dx2 schedule)."}, "[4]": {"tested_on": "human angiosarcoma CTG-2041 tumor fragments", "assay": "CTG-2041 xenograft as monotherapy (FIG. 17)", "format": "in vivo, mice", "details": "100 μg/kg i.v. Day 1 and Day 8", "procedure": "Tumor fragments of human angiosarcoma CTG-2041 were implanted s.c. in the left flank of female mice. Tumor growth was monitored twice a week using digital caliper, so as to calculate the volume of the tumor in accordance with the following calculation formula: […]\nWhen the volume of tumors reached approximately 200 mm^3, animals are matched by tumor volume into treatment or control groups and dosing initiated on Day 1. Each group was consisted with five mice. Compound (1) was dissolved in DMSO and a solution was stored in the freezer before use. Compound (1) (100 μg/kg) diluted in saline and intravenously injected on Day 1 and Day 8."}}}
{"compound": "C=C1C[C@@H]2CC[C@@]34C[C@H]5O[C@H]6[C@@H](O3)[C@H]3O[C@H](CC[C@@H]3O[C@H]6C5O4)CC(=O)O[C@@H]3[C@@H](C)[C@@H]4O[C@@H]5C[C@]6(C[C@@H]7O[C@]8(C[C@H](C)[C@@H]9O[C@H](CN)[C@H](O)C[C@@H]9O8)C[C@H](C)[C@@H]7O6)O[C@@H]5C[C@@H]4O[C@H]3C[C@H]3O[C@@H](CC[C@@H]1O2)C[C@@H](C)C3=C", "note": "(stereo in doubt) [Compound (1)]", "values": [{"measurement": "Tumor Regression (%)", "setting": "[1]; 0.09 mg/kg i.v. + trastuzumab 10 mg/kg", "result": 83, "unit": "%"}, {"measurement": "Tumor Regression (%)", "setting": "[1]; 0.09 mg/kg i.v., without trastuzumab", "result": 43, "unit": "%"}, {"measurement": "Tumor Regression (%)", "setting": "[1]; 0.18 mg/kg i.v. + trastuzumab 10 mg/kg", "result": 100, "unit": "%"}, {"measurement": "Tumor Regression (%)", "setting": "[1]; 0.18 mg/kg i.v., without trastuzumab", "result": 87, "unit": "%"}, {"measurement": "antiproliferative activity", "setting": "[2]", "result": "potent antiproliferative agent"}, {"measurement": "Tumor Regression (%)", "setting": "[3]; 0.06 mg/kg i.v.", "result": 59, "unit": "%"}, {"measurement": "Tumor Regression (%)", "setting": "[3]; 0.18 mg/kg i.v.", "result": 90, "unit": "%"}, {"measurement": "antitumor activity", "setting": "[4]", "result": "tumor regression"}]}
